Assay results: patent publication US20200017496A1 (priority 2017, published 2020)
Like-named read-outs stand apart in the source and are kept apart here.

Columns and labels:
[1] = system: Escherichia coli (ECO) isolates; experiment: MIC of compounds alone and combined with antibacterials, broth microdilution (CLSI); assay type: cell-based; conditions: for MIC: Escherichia coli, ATB alone
Procedure, shortened: (§1)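 Log-phase isolates at final 5·10^5 CFU/mL in cation-adjusted Mueller-Hinton broth, incubated 16-20 h at 35° C in ambient air. MIC read visually as lowest concentration preventing growth, for compound alone and for antibacterial at each compound concentration.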

[2] = system: Morganella morganii (MMO) isolates; experiment: as above; assay type: cell-based; conditions: for MIC: Morganella morganii, ATB alone, read-out: MIC
Procedure, shortened: as §1

CC(C)(O/N=C(\C(=O)N[C@@H]1C(=O)N2C(C(=O)[O-])=C(C[n+]3ccccc3)CS[C@H]12)c1csc(N)n1)C(=O)O [CAZ, Ceftazidime]
4 µg/mL: MIC ATB in combination ([1]; ECO UFR208, AF1 @ 4 μg/mL) | MIC ATB in combination ([1]; ECO UFR212, AF1 @ 4 μg/mL) | MIC ([1]; strain ECO 190549 (CTX-M-1)) | MIC ([1]; strain ECO UFR191 (TEM-1, CTX-M-24, OXA-48)) | MIC ([2]; strain MMO UFR246 (DHA-1))
<=0.25 μg/mL: MIC ATB in combination ([1]; ECO 260508, AF1 @ 8 μg/mL) | MIC ATB in combination ([1]; ECO RGN238, AF1 @ 4 μg/mL) | MIC ATB in combination ([1]; ECO RGN238, AF1 @ 8 μg/mL) | MIC ATB in combination ([1]; ECO UFR15, AF1 @ 4 μg/mL) | MIC ATB in combination ([1]; ECO UFR15, AF1 @ 8 μg/mL) | MIC ATB in combination ([1]; ECO UFR16, AF1 @ 4 μg/mL) | MIC ATB in combination ([1]; ECO UFR16, AF1 @ 8 μg/mL) | MIC ATB in combination ([1]; ECO UFR18, AF1 @ 8 μg/mL) | MIC ATB in combination ([1]; ECO UFR19, AF1 @ 8 μg/mL) | MIC ATB in combination ([1]; ECO UFR62, AF1 @ 4 μg/mL) | MIC ATB in combination ([1]; ECO UFR62, AF1 @ 8 μg/mL) | MIC ATB in combination ([1]; ECO UFR74, AF1 @ 8 μg/mL) | MIC ATB in combination ([1]; ECO UFR86, AF1 @ 8 μg/mL) | MIC ATB in combination ([1]; ECO UFR174, AF1 @ 4 μg/mL) | MIC ATB in combination ([1]; ECO UFR175, AF1 @ 8 μg/mL) | MIC ATB in combination ([1]; ECO UFR176, AF1 @ 8 μg/mL) | MIC ATB in combination ([1]; ECO UFR184, AF1 @ 8 μg/mL) | MIC ATB in combination ([1]; ECO UFR186, AF1 @ 4 μg/mL) | MIC ATB in combination ([1]; ECO UFR186, AF1 @ 8 μg/mL) | MIC ATB in combination ([1]; ECO UFR187, AF1 @ 8 μg/mL) | MIC ATB in combination ([1]; ECO UFR189, AF1 @ 4 μg/mL) | MIC ATB in combination ([1]; ECO UFR189, AF1 @ 8 μg/mL) | MIC ATB in combination ([1]; ECO UFR190, AF1 @ 4 μg/mL) | MIC ATB in combination ([1]; ECO UFR190, AF1 @ 8 μg/mL) | MIC ATB in combination ([1]; ECO UFR191, AF1 @ 4 μg/mL) | MIC ATB in combination ([1]; ECO UFR191, AF1 @ 8 μg/mL) | MIC ATB in combination ([1]; ECO UFR207, AF1 @ 4 μg/mL) | MIC ATB in combination ([1]; ECO UFR207, AF1 @ 8 μg/mL) | MIC ATB in combination ([1]; ECO UFR209, AF1 @ 4 μg/mL) | MIC ATB in combination ([1]; ECO UFR209, AF1 @ 8 μg/mL) | MIC ATB in combination ([1]; ECO UFR210, AF1 @ 4 μg/mL) | MIC ATB in combination ([1]; ECO UFR210, AF1 @ 8 μg/mL) | MIC ATB in combination ([1]; ECO UFR211, AF1 @ 8 μg/mL) | MIC ATB in combination ([1]; ECO UFR212, AF1 @ 8 μg/mL) | MIC ATB in combination ([1]; ECO UFR218, AF1 @ 4 μg/mL) | MIC ATB in combination ([2]; MMO 200321, AF1 @ 4 μg/mL) | MIC ATB in combination ([2]; MMO UFR144, AF1 @ 4 μg/mL) | MIC ATB in combination ([2]; MMO UFR144, AF1 @ 8 μg/mL) | MIC ATB in combination ([2]; MMO UFR240, AF1 @ 4 μg/mL) | MIC ATB in combination ([2]; MMO UFR240, AF1 @ 8 μg/mL) | MIC ATB in combination ([2]; MMO UFR241, AF1 @ 4 μg/mL) | MIC ATB in combination ([2]; MMO UFR241, AF1 @ 8 μg/mL) | MIC ATB in combination ([2]; MMO UFR243, AF1 @ 4 μg/mL) | MIC ATB in combination ([2]; MMO UFR243, AF1 @ 8 μg/mL) | MIC ATB in combination ([2]; MMO UFR244, AF1 @ 4 μg/mL) | MIC ATB in combination ([2]; MMO UFR244, AF1 @ 8 μg/mL) | MIC ATB in combination ([2]; MMO UFR245, AF1 @ 4 μg/mL) | MIC ATB in combination ([2]; MMO UFR245, AF1 @ 8 μg/mL) | MIC ATB in combination ([2]; MMO UFR246, AF1 @ 4 μg/mL) | MIC ATB in combination ([2]; MMO UFR246, AF1 @ 8 μg/mL)
> 256 µg/mL: MIC ([1]; strain ECO UFR185 (OXA-48), read-out: MIC)
1 µg/mL: MIC ATB in combination ([1]; ECO UFR18, AF1 @ 4 μg/mL) | MIC ATB in combination ([1]; ECO UFR19, AF1 @ 4 μg/mL) | MIC ATB in combination ([1]; ECO UFR20, AF1 @ 4 μg/mL) | MIC ATB in combination ([1]; ECO UFR20, AF1 @ 8 μg/mL) | MIC ATB in combination ([1]; ECO UFR74, AF1 @ 4 μg/mL) | MIC ATB in combination ([1]; ECO UFR86, AF1 @ 4 μg/mL) | MIC ATB in combination ([1]; ECO UFR184, AF1 @ 4 μg/mL) | MIC ATB in combination ([1]; ECO UFR187, AF1 @ 4 μg/mL) | MIC ([2]; strain MMO UFR243 (DHA-1))
<0.25 µg/mL: MIC ATB in combination ([1]; ECO UFR174, AF1 @ 8 μg/mL) | MIC ATB in combination ([1]; ECO UFR185, AF1 @ 8 μg/mL) | MIC ATB in combination ([1]; ECO UFR218, AF1 @ 8 μg/mL)
2 µg/mL: MIC ATB in combination ([1]; ECO UFR17, AF1 @ 8 μg/mL) | MIC ATB in combination ([1]; ECO UFR61O, AF1 @ 4 μg/mL) | MIC ATB in combination ([1]; ECO UFR175, AF1 @ 4 μg/mL) | MIC ATB in combination ([1]; ECO UFR176, AF1 @ 4 μg/mL) | MIC ATB in combination ([1]; ECO UFR185, AF1 @ 4 μg/mL) | MIC ATB in combination ([1]; ECO UFR208, AF1 @ 8 μg/mL) | MIC ([1]; strain ECO UFR86 (ompC-, ompF-), read-out: MIC) | MIC ATB in combination ([2]; MMO UFR242, AF1 @ 4 μg/mL)
16 µg/mL: MIC ATB in combination ([1]; ECO UFR17, AF1 @ 4 μg/mL) | MIC ([1]; strain ECO 190457 (CTX-M-15, OXA-1)) | MIC ([1]; strain ECO 260304 (CTX-M-15)) | MIC ([2]; strain MMO 200321 (TEM-1, CTX-M-15, OXA-1))
8 µg/mL: MIC ([1]; strain ECO 190314 (CTX-M-1)) | MIC ([1]; strain ECO 200344 (CTX-M-1)) | MIC ([1]; strain ECO UFR174 (TEM-1, KPC-2, OXA-1)) | MIC ([1]; strain ECO UFR186 (TEM-1, CTX-M-14, OXA-48)) | MIC ([1]; strain ECO UFR187 (CTX-M-15, OXA-48)) | MIC ([2]; strain MMO UFR144 (TEM-1, CTX-M-15)) | MIC ([2]; strain MMO UFR241 (TEM-1, CTX-M-15)) | MIC ([2]; strain MMO UFR245 (DHA-1))
0.25 µg/mL: MIC ATB in combination ([2]; MMO UFR242, AF1 @ 8 μg/mL)
32 µg/mL: MIC ([1]; strain ECO UFR175 (TEM-1, KPC-2, OXA-9)) | MIC ([1]; strain ECO UFR210 (SHV-12)) | MIC ([2]; strain MMO UFR242 (TEM-52))
0.5 µg/mL: MIC ATB in combination ([1]; ECO UFR61O, AF1 @ 8 μg/mL) | MIC ATB in combination ([1]; ECO UFR211, AF1 @ 4 μg/mL) | MIC ([1]; strain ECO 4133 (TEM-30, OXA-1)) | MIC ([1]; strain ECO 5302 (TEM-1, OXA-1)) | MIC ([1]; strain ECO 131119 (TEM-1, OXA-48)) | MIC ([1]; strain ECO RGN238 (OXA-1)) | MIC ([1]; strain ECO UFR15 (TEM-1, OXA-48))
